Consider seven compounds from PMC2799665.

SMILES strings stand for the structures.

The data set is described as follows: End-to-end contact formation (no covalent bond): MR121 oxazine dye fluorescence quenched by C-terminal Trp through van der Waals contact/stacking; ns-resolved FCS; single-exponential fit over 6-300 ns with two-state model. Conditions: the molecule shown is the open-chain precursor; water (aqueous solution); 20.0 °C.
Regarding `CCN1CCCc2cc3c(cc21)Oc1cc2c(cc1=N3)CCC[N+]=2CCCC(=O)NCC(=O)N[C@@H](CO)C(=O)NCC(=O)N[C@@H](CO)C(=O)NCC(=O)N[C@@H](CO)C(=O)NCC(=O)N[C@@H](CO)C(=O)NCC(=O)N[C@@H](CO)C(=O)NCC(=O)N[C@@H](CO)C(=O)NCC(=O)N[C@@H](CO)C(=O)NCC(=O)N[C@@H](CO)C(=O)NCC(=O)N[C@@H](CO)C(=O)NCC(=O)N[C@@H](CO)C(=O)NCC(=O)N[C@@H](CO)C(=O)NCC(=O)N[C@@H](CO)C(=O)N[C@@H](Cc1c[nH]c2ccccc12)C(=O)[O-]`, the end-to-end contact formation time constant (ns (closing time constant tau+ = 1/k+)) came to 68.4.
On to `CCN1CCCc2cc3c(cc21)Oc1cc2c(cc1=N3)CCC[N+]=2CCCC(=O)NCC(=O)N[C@@H](CO)C(=O)NCC(=O)N[C@@H](CO)C(=O)NCC(=O)N[C@@H](CO)C(=O)NCC(=O)N[C@@H](CO)C(=O)NCC(=O)N[C@@H](CO)C(=O)NCC(=O)N[C@@H](CO)C(=O)NCC(=O)N[C@@H](CO)C(=O)N[C@@H](Cc1c[nH]c2ccccc12)C(=O)[O-]`, for which the end-to-end contact formation time constant (ns (closing time constant tau+ = 1/k+)) was found to be 32.7.
With `CCN1CCCc2cc3c(cc21)Oc1cc2c(cc1=N3)CCC[N+]=2CCCC(=O)NCC(=O)N[C@@H](CO)C(=O)NCC(=O)N[C@@H](CO)C(=O)NCC(=O)N[C@@H](CO)C(=O)NCC(=O)N[C@@H](CO)C(=O)NCC(=O)N[C@@H](CO)C(=O)NCC(=O)N[C@@H](CO)C(=O)NCC(=O)N[C@@H](CO)C(=O)NCC(=O)N[C@@H](CO)C(=O)NCC(=O)N[C@@H](CO)C(=O)N[C@@H](Cc1c[nH]c2ccccc12)C(=O)[O-]` the figure was 48.9; with `CCN1CCCc2cc3c(cc21)Oc1cc2c(cc1=N3)CCC[N+]=2CCCC(=O)NCC(=O)N[C@@H](CO)C(=O)NCC(=O)N[C@@H](CO)C(=O)NCC(=O)N[C@@H](CO)C(=O)NCC(=O)N[C@@H](CO)C(=O)NCC(=O)N[C@@H](CO)C(=O)NCC(=O)N[C@@H](CO)C(=O)NCC(=O)N[C@@H](CO)C(=O)NCC(=O)N[C@@H](CO)C(=O)NCC(=O)N[C@@H](CO)C(=O)NCC(=O)N[C@@H](CO)C(=O)NCC(=O)N[C@@H](CO)C(=O)NCC(=O)N[C@@H](CO)C(=O)NCC(=O)N[C@@H](CO)C(=O)NCC(=O)N[C@@H](CO)C(=O)NCC(=O)N[C@@H](CO)C(=O)N[C@@H](Cc1c[nH]c2ccccc12)C(=O)[O-]`, 103; with `CCN1CCCc2cc3c(cc21)Oc1cc2c(cc1=N3)CCC[N+]=2CCCC(=O)NCC(=O)N[C@@H](CO)C(=O)NCC(=O)N[C@@H](CO)C(=O)NCC(=O)N[C@@H](CO)C(=O)NCC(=O)N[C@@H](CO)C(=O)NCC(=O)N[C@@H](CO)C(=O)N[C@@H](Cc1c[nH]c2ccccc12)C(=O)[O-]` [MR121-Gly-Ser-Gly-Ser-Gly-Ser-Gly-Ser-Gly-Ser-Trp-O-], 20.5.
With `CCN1CCCc2cc3c(cc21)Oc1cc2c(cc1=N3)CCC[N+]=2CCCC(=O)NCC(=O)N[C@@H](CO)C(=O)NCC(=O)N[C@@H](CO)C(=O)N[C@@H](Cc1c[nH]c2ccccc12)C(=O)[O-]` [MR121-Gly-Ser-Gly-Ser-Trp-O-], the end-to-end contact formation time constant (ns (closing time constant tau+ = 1/k+)) stood at 14.6.
With `CCN1CCCc2cc3c(cc21)Oc1cc2c(cc1=N3)CCC[N+]=2CCCC(=O)NCC(=O)N[C@@H](CO)C(=O)NCC(=O)N[C@@H](CO)C(=O)NCC(=O)N[C@@H](CO)C(=O)N[C@@H](Cc1c[nH]c2ccccc12)C(=O)[O-]` [MR121-Gly-Ser-Gly-Ser-Gly-Ser-Trp-O-] the figure was 17.6.
